From publication PMC3197605, “Expression, Purification and Characterization of Arginase from Helicobacter pylori in Its Apo Form” (PLoS ONE, 2011)
Like-named read-outs stand apart in the source and are kept apart here.

Molecular target: T1, arginase (RocF) (Helicobacter pylori, UniProt O25949)
T1 construct: gene HP_1399; RocF with C-terminal His6 tag, apo form, expressed in E. coli BL21 (DE3)
Test: colorimetric arginase assay (ninhydrin detection of L-ornithine), purified apo-RocF heat-activated with Co2+, pH […]
Assay type: biochemical

T1 sequence (O25949 entry or part of it): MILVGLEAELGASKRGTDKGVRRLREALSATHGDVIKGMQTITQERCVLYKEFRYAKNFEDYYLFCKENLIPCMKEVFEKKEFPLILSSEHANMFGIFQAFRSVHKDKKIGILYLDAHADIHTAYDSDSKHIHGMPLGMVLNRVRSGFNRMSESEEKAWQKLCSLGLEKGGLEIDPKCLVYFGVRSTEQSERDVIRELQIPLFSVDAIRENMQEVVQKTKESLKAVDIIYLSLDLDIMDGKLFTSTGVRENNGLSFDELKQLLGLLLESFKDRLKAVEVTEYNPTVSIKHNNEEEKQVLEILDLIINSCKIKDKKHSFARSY

| IC50 (read-out: IC50) [µM] | SMILES | IC50 [µM] |
| --- | --- | --- |
|  | N[C@@H](CSCCB(O)O)C(=O)O [BEC, S-(2-boronoethyl)-L-Cysteine] | 1000 |
| 500 | N=C(NO)NCC[C@H](N)C(=O)O [nor-NOHA] |  |
